Results published in patent US20200016159A1, “N3-CYCLICALLY SUBSTITUTED THIENOURACILS AND USE THEREOF” (Bayer Aktiengesellschaft, priority 2016, published 2020).

Each compound was assayed against T1, human adenosine A2b receptor (Homo sapiens, UniProt P29275) (assay: Cellular in vitro reporter gene test for A2b receptor activity (antagonism of NECA)). Details: recombinant CHO-K1 cells, CRE-luciferase reporter, co-incubation with EC50 concentration of NECA, 3 hours.
T1 sequence (P29275 1-332): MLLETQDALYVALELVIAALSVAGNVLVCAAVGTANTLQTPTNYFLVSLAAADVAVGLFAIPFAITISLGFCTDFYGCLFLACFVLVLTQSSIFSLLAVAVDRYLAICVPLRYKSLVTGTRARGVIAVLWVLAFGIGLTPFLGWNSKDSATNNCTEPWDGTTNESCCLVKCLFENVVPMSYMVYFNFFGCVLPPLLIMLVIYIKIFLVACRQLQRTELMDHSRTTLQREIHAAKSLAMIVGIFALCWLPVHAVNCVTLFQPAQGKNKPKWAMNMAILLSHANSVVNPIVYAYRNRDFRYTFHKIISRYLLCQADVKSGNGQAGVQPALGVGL
Assay type: cell-based
Set-up: expressed in transfected cells; host or cells: CHO-K1 (Chinese hamster ovary) with CRE-luciferase reporter
Description: The identification of selective antagonists of the human adenosine A2b receptor and the quantification of the efficacy and selectivity of the compounds according to the invention was carried out with the aid of recombinant cell lines for the human adenosine receptors A1, A2a, A2b and A3. These cell lines were originally derived from an ovarepithelial cell of the hamster (Chinese Hamster Ovary, CHO-K1, American Type Culture Collection, Manassas, Va. 20108, USA). In addition to the respective recombinantly expressed adenosine receptor for testing the efficacy at the A1, A2a and A2b receptors, the cell lines contain a reporter gene construct where expression of the firefly (Photinus pyralis) luciferase is under the control of a promoter which can be activated via intracellular signal cascades by stimulation of the receptors with the (not subtype-selective) adenosine receptor agonist NECA (5′-N-ethylcarboxamidoadenosine) [S. J. Hill, J. G. Baker, S. Rhees, Curr. Opin. Pharmacol. 1, 526-532 (2001)].
In the case of the A2a and A2b cell lines, this is a minimal promoter having a plurality of cAMP-responsive elements (CRE). Stimulation of the Gs-coupled A2b or A2a receptors by NECA ultimately leads, via formation of cAMP, to CRE-dependent induction of luciferase expression, which is detected 3 hours after the start of the incubation with NECA using a detection solution in a suitable luminometer. For testing the antagonists, initially, in a pre-experiment, the concentration of NECA which, at the test day in question, results in half-maximum stimulation of luciferase expression (EC50 concentration) is determined. By joint incubation of this EC50 concentration of NECA with the substances to be tested, it is possible to determine their antagonistic activity.
Table 1 below lists the IC50 values from the A2b receptor assay for individual working examples (in some cases as means of a plurality of independent individual determinations and rounded to two significant figures; it may also be the case here that various independent preparations of the respective working example have been used): […]
`Cc1c(Cn2nc[nH]c2=O)sc2c1c(=O)n(C1CC1)c(=O)n2CC1CCCC1(F)F` (single isomer, unassigned) [Example 207, 3-Cyclopropyl-1-[(2,2-difluorocyclopentyl)methyl]-5-methyl-6-[(5-oxo-4,5-dihydro-1H-1,2,4-triazol-1-yl)methyl]thieno[2,3-d]pyrimidine-2,4(1H,3H)-dione] gave an IC50 of 910 nM. Compound `Cc1c(Cn2nc[nH]c2=O)sc2c1c(=O)n(C1CC1C)c(=O)n2CCOC(F)(F)F` (single isomer, unassigned) [Example 277, 5-Methyl-3-(2-methylcyclopropyl)-6-[(5-oxo-4,5-dihydro-1H-1,2,4-triazol-1-yl)methyl]-1-[2-(trifluoromethoxy)ethyl]thieno[2,3-d]pyrimidine-2,4(1H,3H)-dione] has an IC50 of 3.9 nM. `Cc1c(CN2CCNC2=O)sc2c1c(=O)n(C1CC1(C)C)c(=O)n2CCC(F)(F)F` (racemic) [Example 100, 3-(2,2-Dimethylcyclopropyl)-5-methyl-6-[(2-oxoimidazolidin-1-yl)methyl]-1-(3,3,3-trifluoropropyl)thieno[2,3-d]pyrimidine-2,4(1H,3H)-dione] gave an IC50 of 12 nM. Work on `COCCn1c(=O)n(C2CC(C)(C)C2)c(=O)c2c(C)c(CN3CCNC3=NC#N)sc21` [Example 170, [1-{[3-(3,3-Dimethylcyclobutyl)-1-(2-methoxyethyl)-5-methyl-2,4-dioxo-1,2,3,4-tetrahydrothieno[2,3-d]pyrimidin-6-yl]methyl}imidazolidin-2-ylidene]cyanamide] yielded an IC50 of 8.6 nM. Work on `Cc1c(CN2CCNC2=O)sc2c1c(=O)n(C1CC1C)c(=O)n2CCCF` (single isomer, unassigned) [Example 92, 1-(3-Fluoropropyl)-5-methyl-3-(2-methylcyclopropyl)-6-[(2-oxoimidazolidin-1-yl)methyl]thieno[2,3-d]pyrimidine-2,4(1H,3H)-dione] yielded an IC50 of 2.8 nM. Compound `COCCn1c(=O)n(C2CC2C(F)(F)F)c(=O)c2c(C)c(Cn3nc[nH]c3=O)sc21` (single isomer, unassigned) [Example 298, 1-(2-Methoxyethyl)-5-methyl-6-[(5-oxo-4,5-dihydro-1H-1,2,4-triazol-1-yl)methyl]-3-[2-(trifluoromethyl)cyclopropyl]thieno[2,3-d]pyrimidine-2,4(1H,3H)-dione] has an IC50 of 1800 nM. `COCCn1c(=O)n(C2CC(C)(C)C2)c(=O)c2c(C)c(CN3CCNC3=O)sc21` [Example 169, 3-(3,3-Dimethylcyclobutyl)-1-(2-methoxyethyl)-5-methyl-6-[(2-oxoimidazolidin-1-yl)methyl]thieno[2,3-d]pyrimidine-2,4(1H,3H)-dione] showed an IC50 of 14 nM. Compound `COCCn1c(=O)n(C2CC2OC)c(=O)c2c(C)c(Cn3nc[nH]c3=O)sc21` (single isomer, unassigned) [Example 311, 3-(2-Methoxycyclopropyl)-1-(2-methoxyethyl)-5-methyl-6-[(5-oxo-4,5-dihydro-H-1,2,4-triazol-1-yl)methyl]thieno[2,3-d]pyrimidine-2,4(1H,3H)-dione] has an IC50 of 44 nM. In the case of `Cc1c(Cn2nc[nH]c2=O)sc2c1c(=O)n(C1CC1)c(=O)n2C[C@H]1CCCO1` [Example 50, 3-Cyclopropyl-5-methyl-6-[(5-oxo-4,5-dihydro-1H-1,2,4-triazol-1-yl)methyl]-1-[(2R)-tetrahydrofuran-2-ylmethyl]thieno[2,3-d]pyrimidine-2,4(1H,3H)-dione], the IC50 is reported as 140 nM. For `CCC1CC1n1c(=O)c2c(C)c(CN3CCNC3=O)sc2n(CCOC)c1=O` (racemic) [Example 300, 3-(2-Ethylcyclopropyl)-1-(2-methoxyethyl)-5-methyl-6-[(2-oxoimidazolidin-1-yl)methyl]thieno[2,3-d]pyrimidine-2,4(1H,3H)-dione], the IC50 was 13 nM. With `COCCn1c(=O)n(C2CC2(C)C)c(=O)c2c(C)c(CN3CCNC3=O)sc21` (single isomer, unassigned) [Example 105, 3-(2,2-Dimethylcyclopropyl)-1-(2-methoxyethyl)-5-methyl-6-[(2-oxoimidazolidin-1-yl)methyl]thieno[2,3-d]pyrimidine-2,4(1H,3H)-dione] the IC50 was 92 nM. `COCCn1c(=O)n(C2CCCC2)c(=O)c2c(C)c(CN3CCNC3=NC(=O)OC)sc21` [Example 191, Methyl [1-{[3-cyclopentyl-1-(2-methoxyethyl)-5-methyl-2,4-dioxo-1,2,3,4-tetrahydrothieno[2,3-d]pyrimidin-6-yl]methyl}imidazolidin-2-ylidene]carbamate] gave an IC50 of 18 nM. Compound `COCCn1c(=O)n(C2CC3(CCC3)C2)c(=O)c2c(C)c(Cn3nc[nH]c3=O)sc21` [Example 183, 1-(2-Methoxyethyl)-5-methyl-6-[(5-oxo-4,5-dihydro-1H-1,2,4-triazol-1-yl)methyl]-3-(spiro[3.3]hept-2-yl)thieno[2,3-d]pyrimidine-2,4(1H,3H)-dione] has an IC50 of 70 nM. `Cc1c(Cn2nc[nH]c2=O)sc2c1c(=O)n(C1(C)CC1)c(=O)n2C[C@H]1CCCO1` [Example 83, 5-Methyl-3-(1-methylcyclopropyl)-6-[(5-oxo-4,5-dihydro-1H-1,2,4-triazol-1-yl)methyl]-1-[(2R)-tetrahydrofuran-2-ylmethyl]thieno[2,3-d]pyrimidine-2,4(1H, 3H)-dione] gave an IC50 of 130 nM. `Cc1c(CN2CCNC2=O)sc2c1c(=O)n(C1CC1)c(=O)n2CC1CC(F)(F)C1` [Example 204, 3-Cyclopropyl-1-[(3,3-difluorocyclobutyl)methyl]-5-methyl-6-[(2-oxoimidazolidin-1-yl)methyl]thieno[2,3-d]pyrimidine-2,4(1H,3H)-dione] was tested, and the IC50 was 1.8 nM. With `Cc1c(CN2CCNC2=O)sc2c1c(=O)n(C1CC1C)c(=O)n2CCF` (single isomer, unassigned) [Example 233, 1-(2-Fluoroethyl)-5-methyl-3-(2-methylcyclopropyl)-6-[(2-oxoimidazolidin-1-yl)methyl]thieno[2,3-d]pyrimidine-2,4(1H,3H)-dione] the IC50 was 11 nM. For `Cc1c(Cn2nc[nH]c2=O)sc2c1c(=O)n(C1CC1)c(=O)n2CC1CC1(F)F` (single isomer, unassigned; enantiomer 2) [Example 22, 3-Cyclopropyl-1-[(2,2-difluorocyclopropyl)methyl]-5-methyl-6-[(5-oxo-4,5-dihydro-1H-1,2,4-triazol-1-yl)methyl]thieno[2,3-d]pyrimidine-2,4(1H,3H)-dione (enantiomer 2)], the IC50 was 280 nM. For `COCCn1c(=O)n(C2CC2)c(=O)c2c(C)c(Cn3nc[nH]c3=O)sc21` [Example 29, 3-Cyclopropyl-1-(2-methoxyethyl)-5-methyl-6-[(5-oxo-4,5-dihydro-1H-1,2,4-triazol-1-yl)methyl]thieno[2,3-d]pyrimidine-2,4(1H,3H)-dione], the IC50 was 57 nM. Compound `Cc1c(Cn2nc[nH]c2=O)sc2c1c(=O)n([C@H]1C[C@@H]1C)c(=O)n2CC(F)F` [Example 320, 1-(2,2-Difluoroethyl)-5-methyl-3-[(S,2S)-2-methylcyclopropyl]-6-[(5-oxo-4,5-dihydro-1H-1,2,4-triazol-1-yl)methyl]thieno[2,3-d]pyrimidine-2,4(1H,3H)-dione] has an IC50 of 13 nM. `COCCn1c(=O)n(C2CCC2)c(=O)c2c(C)c(CN3CCNC(=O)C3=O)sc21` [Example 118, 3-Cyclobutyl-6-[(2,3-dioxopiperazin-1-yl)methyl]-1-(2-methoxyethyl)-5-methylthieno[2,3-d]pyrimidine-2,4(1H,3H)-dione] showed an IC50 of 14 nM. With `COCCn1c(=O)n([C@H]2C[C@H](OC)C2)c(=O)c2c(C)c(CN3CCNC3=NC(=O)OC)sc21` [Example 151, Methyl [1-{[3-(trans-3-methoxycyclobutyl)-1-(2-methoxyethyl)-5-methyl-2,4-dioxo-1,2,3,4-tetrahydrothieno[2,3-d]pyrimidin-6-yl]methyl}imidazolidin-2-ylidene]carbamate] the IC50 was 45 nM. `COCCn1c(=O)n(C2CC(F)(F)C2)c(=O)c2c(C)c(CN3CCNC3=O)sc21` [Example 125, 3-(3,3-Difluorocyclobutyl)-1-(2-methoxyethyl)-5-methyl-6-[(2-oxoimidazolidin-1-yl)methyl]thieno[2,3-d]pyrimidine-2,4(1H,3H)-dione] showed an IC50 of 33 nM. `Cc1c(CN2CCNC2=O)sc2c1c(=O)n(C1(C)CC1)c(=O)n2CC1CC1(F)F` (racemic) [Example 63, 1-[(2,2-Difluorocyclopropyl)methyl]-5-methyl-3-(1-methylcyclopropyl)-6-[(2-oxoimidazolidin-1-yl)methyl]thieno[2,3-d]pyrimidine-2,4(1H,3H)-dione] gave an IC50 of 12 nM.
